{"source": "patent US20240002442A1", "about": "“CYCLIC PEPTIDES WITH ANTIMICROBIAL PROPERTIES” (priority 2020, published 2024)", "key": {"[1]": {"test_system": "Clostridium bifermentans KLE 2329"}, "[2]": {"test_system": "Photorhabdus australis DSM 17609"}, "[3]": {"test_system": "Staphylococcus aureus HG003"}, "[4]": {"test_system": "Limosilactobaccilus reuteri LTH5448"}, "[5]": {"test_system": "Escherichia coli K-12 MG1655"}, "[6]": {"test_system": "Moraxella catarrhalis ATCC 25248"}, "[7]": {"test_system": "Veillonella ratti KLE 2365"}, "[8]": {"test_system": "Pseudomonas aeruginosa PA01"}, "[9]": {"test_system": "Shigella sonnei ATCC 25931"}, "[10]": {"test_system": "Klebsiella pneumoniae AR347"}, "[11]": {"test_system": "Enterobacter cloaceae ATCC 13047"}, "[12]": {"test_system": "Yersinia pseudotuberculosis ATCC 6904"}, "[13]": {"test_system": "Salmonella enterica Enteritidis AR496"}, "[14]": {"test_system": "Pseudomonas aeruginosa PA14"}, "[15]": {"test_system": "Bacteroides stercoris KLE 2537"}, "[16]": {"test_system": "Burkholderia cenocepacia ATCC BAA-245"}, "[17]": {"test_system": "Salmonella enterica typhimurium LT2A TCC 19585"}, "[18]": {"test_system": "Escherichia coli ATCC 25922"}, "[19]": {"test_system": "Vibrio vulnificus KLE δ-1125"}, "[20]": {"test_system": "Acinetobacter baumannii ATCC 19606"}, "[21]": {"test_system": "Bacteroides fragilis KLE 2244"}}, "note": "“And” between values parts separate entries of the source, which are not always exact repeats. Identical values can stand only once. Like-named read-outs stand apart in the source and are kept apart here.", "data": [{"smiles": "CC(C)C(NC(=O)C1NC(=O)C(CO)NC(=O)C(CC(N)=O)NC(=O)C(N)Cc2c[nH]c3cc(ccc23)C1C(N)=O)C(=O)NC1Cc2cn(cn2)C(c2ccc(O)cc2)C(C(=O)NC(CCCNC(=N)N)C(=O)NC(Cc2ccccc2)C(=O)O)NC(=O)C(CO)NC1=O", "note": "(stereo not shown) [Formula (I)]", "values": [{"measurement": "MIC", "setting": "Escherichia coli MG1655; Escherichia coli MG1655", "value": 16, "unit": "µg/mL"}, {"measurement": "MIC", "setting": "[1]", "value": ">128", "unit": "µg/mL"}, {"measurement": "MIC", "setting": "[2]; Photorhabdus australis DSM 17609 (producer strain; listed twice)", "value": "250 µg/mL and >128 µg/mL"}, {"measurement": "MIC", "setting": "[3]; Staphylococcus aureus HG003", "value": ">1000", "unit": "µg/mL"}, {"measurement": "MIC", "setting": "[4]", "value": ">128", "unit": "µg/mL"}, {"measurement": "MIC", "setting": "[5]", "value": 16, "unit": "µg/mL"}, {"measurement": "MIC", "setting": "Proteus mirabilis BB2000; Proteus mirabilis BB2000", "value": 125, "unit": "µg/mL"}, {"measurement": "MIC", "setting": "[6]", "value": 2, "unit": "µg/mL"}, {"measurement": "MIC", "setting": "[7]", "value": 16, "unit": "µg/mL"}, {"measurement": "MIC", "setting": "[8]; Pseudomonas aeruginosa PA01", "value": 8, "unit": "µg/mL"}, {"measurement": "MIC", "setting": "[9]", "value": 4, "unit": "µg/mL"}, {"measurement": "MIC", "setting": "[10]", "value": 64, "unit": "µg/mL"}, {"measurement": "MIC", "setting": "Proteus mirabilis H14320; Proteus mirabilis H14320", "value": 64, "unit": "µg/mL"}, {"measurement": "MIC", "setting": "[11]", "value": 16, "unit": "µg/mL"}, {"measurement": "MIC", "setting": "[12]; ATCC 6904", "value": 8, "unit": "µg/mL"}, {"measurement": "MIC", "setting": "[13]", "value": 8, "unit": "µg/mL"}, {"measurement": "MIC", "setting": "[14]; Pseudomonas aeruginosa PA14", "value": 16, "unit": "µg/mL"}, {"measurement": "MIC", "setting": "Bacillus subtilis 168; Bacillus subtilis 168", "value": ">1000", "unit": "µg/mL"}, {"measurement": "MIC", "setting": "[15]", "value": ">128", "unit": "µg/mL"}, {"measurement": "MIC", "setting": "[16]", "value": ">1000", "unit": "µg/mL"}, {"measurement": "MIC", "setting": "[17]", "value": 8, "unit": "µg/mL"}, {"measurement": "MIC", "setting": "[18]", "value": 8, "unit": "µg/mL"}, {"measurement": "MIC", "setting": "[19]", "value": 8, "unit": "µg/mL"}, {"measurement": "MIC", "setting": "Escherichia coli AR350", "value": 8, "unit": "µg/mL"}, {"measurement": "MIC", "setting": "[20]; Acinetobacter baumannii ATCC 19606", "value": 16, "unit": "µg/mL"}, {"measurement": "MIC", "setting": "[21]", "value": ">128", "unit": "µg/mL"}]}, {"smiles": "CC(C)C(NC(=O)C1NC(=O)C(CO)NC(=O)C(CC(N)=O)NC(=O)C(NC(=O)C(CO)NC(=O)C2CCCN2)Cc2c[nH]c3cc(ccc23)C1C(N)=O)C(=O)NC1Cc2cn(cn2)C(c2ccc(O)cc2)C(C(=O)NC(CCCNC(=N)N)C(=O)NC(Cc2ccccc2)C(=O)O)NC(=O)C(CO)NC1=O", "note": "(stereo not shown) [Formula (III)]", "values": [{"measurement": "MIC", "setting": "Escherichia coli MG1655; MG1655", "value": 8, "unit": "µg/mL"}, {"measurement": "MIC", "setting": "[2]; DSM 17609", "value": 500, "unit": "µg/mL"}, {"measurement": "MIC", "setting": "[3]; HG003", "value": ">1000", "unit": "µg/mL"}, {"measurement": "MIC", "setting": "Proteus mirabilis BB2000; BB2000", "value": 64, "unit": "µg/mL"}, {"measurement": "MIC", "setting": "[8]", "value": 16, "unit": "µg/mL"}, {"measurement": "MIC", "setting": "[10]", "value": 125, "unit": "µg/mL"}, {"measurement": "MIC", "setting": "Proteus mirabilis H14320; H14320", "value": 32, "unit": "µg/mL"}, {"measurement": "MIC", "setting": "[12]; Yersinia pseudotuberculosis ATCC 6904", "value": 16, "unit": "µg/mL"}, {"measurement": "MIC", "setting": "[13]", "value": 32, "unit": "µg/mL"}, {"measurement": "MIC", "setting": "[14]; PA14", "value": 32, "unit": "µg/mL"}, {"measurement": "MIC", "setting": "Bacillus subtilis 168; 168", "value": ">1000", "unit": "µg/mL"}, {"measurement": "MIC", "setting": "[16]", "value": ">1000", "unit": "µg/mL"}, {"measurement": "MIC", "setting": "Escherichia coli AR350", "value": 16, "unit": "µg/mL"}, {"measurement": "MIC", "setting": "[20]; ATCC 19606", "value": 8, "unit": "µg/mL"}]}]}
